Test results as given in US8703988B2, “Self-assembled nanostructures” (Xerox Corporation, priority 2010, dated 2014).
“Also recorded” adds a separate entry of the source.

Key:
[1] = Gelation test (gelator ability in solvents, vial inversion); format: physicochemical; parameters: key: I = insoluble; P = precipitate; S = solution; VS = viscous solution; G = gel; PG = partial gel; settings: concentration in wt % in parentheses in each cell
Experimental: A number of characterization methods are useful for detecting and characterizing self-assembled nanostructures from alkylated derivatives of aromatic acids. The simplest test is to observe any changes in viscosity (rheology) of the liquid containing the alkylated compound relative to the neat liquid alone. […] The increase in viscosity and gelation of liquids is known to occur due to the presence and entanglement of long, 1D aggregates.
To vials with a screw cap lids (4 mL capacity) were added alkylated derivatives of aromatic acids as solids (1-100 mg) and a solvent (1 mL). The mixture was then sonicated and heated until clear solutions were obtained. After cooling and standing at room temperature for at least 30 min., the sample was inverted and inspected visually.

[2] = Self-assembled nanostructures observed by SEM and STEM; format: physicochemical
Source text: Microscopy techniques such as optical light microscopy, scanning electron microscopy (SEM), transmission electron microscopy (TEM), atomic force microscopy (AFM)/scanning probe microscopy (SPM), and fluorescence microscopy are useful for determining the size and morphology of the nano (and micro) structures formed from alkylated derivatives of aromatic acids. Samples are typically prepared by depositing a drop of the liquid composition containing the nanostructures onto an appropriate sample substrate such as a carbon film coated copper mesh TEM grid, removing the excess liquid by blotting with filter paper, and then allowing to dry prior to analysis. Dynamic light scattering is also useful for detecting the presence of particles between 1 nm and 1 μm in size, measuring the size/size distribution of the dispersed particles. Rheometry is useful for determining the viscoelastic properties and thermal phase transitions for compositions of the self-assembled nanostructures. X-ray diffraction is useful for characterizing the structure of the self-assembled nanostructures size as phase identification, crystallinity, phase transitions, crystal structure refinement and determination, and size and strain broadening of crystallite nanostructures. NMR spectroscopy is useful in detecting the formation intermolecular noncovalent interactions stabilizing the nanostructures, their diffusion properties, as well as phase transitions. UV-Vis can be used for detecting the presence of nanostructures as well as confirming the presence of intermolecular pi-stacking interactions. FT-IR spectroscopy is also useful for the detection of hydrogen-bonding interactions involved in stabilizing the self-assembled nanostructures. Differential Scanning calorimetry (DSC) is another useful characterization technique, which enables the identification of thermal phase transitions within the compositions containing the nanostructures.
This example describes the self-assembled nanostructures formed from alkylated derivatives of aromatic acids deposited onto substrates observed by Scanning Electron and Scanning Transmission Electron Microscopy (SEM and STEM, respectively).
Microscopy samples are prepared by mixing the alkylated derivatives of aromatic acids as solids with a solvent, subjecting the mixture to bath sonication, and then heating to form a clear solution. The solutions are then cooled to room temperature and allowed to age for desired periods of time prior to microscopy sample preparation. After cooling, the samples may be clear solutions, turbid colloidal solutions, or more opaque dispersions. Microscopy samples are prepared for analysis by depositing a drop on thin carbon film coated copper mesh grids, allowing the drop to remain on the film for a desired period of time, followed by wicking away the excess solvent with filter paper and allowing to dry. Table 5 summarizes examples of compositions containing nanostructures of alkylated derivatives of selected aromatic acids for this invention. FIGS. 1 to 7 show Scanning Electron Microscopy and Scanning Transmission Electron Microscopy images of the nanostructures formed from alkylated derivatives of selected aromatic acids.

[3] = solvent H2O, sonicated, heated, cooled, room temperature at least 30 min, vial inverted
[4] = Xylenes:THF (1:1), 1.3 mg/mL, fibrils
[5] = Toluene, 0.1 mg/mL, bundles of fibrils

| Structure (SMILES) | gelator ability (state of sample) ([1]; solvent CHCl3) | gelator ability (state of sample) ([1]; solvent Ethylene Glycol) | gelator ability (state of sample) [1, 3] | gelator ability (state of sample) ([1]; solvent Hexadecane) | gelator ability (state of sample) ([1]; solvent Hexanes) | gelator ability (state of sample) ([1]; solvent MeOH) | gelator ability (state of sample) ([1]; solvent Toluene) | gelator ability (state of sample) ([1]; solvent Cyclohexane) | gelator ability (state of sample) ([1]; solvent Decalin) | gelator ability (state of sample) ([1]; solvent Dimethoxyethane) | gelator ability (state of sample) ([1]; solvent Xylenes) | Description (nanostructure) ([2]; Chloroform, 0.1 mg/mL) | L ([2]; Chloroform, 0.1 mg/mL, fibrils) | W ([2]; Chloroform, 0.1 mg/mL, fibrils) | also measured |
| --- | --- | --- | --- | --- | --- | --- | --- | --- | --- | --- | --- | --- | --- | --- | --- |
| CCCC(=O)Nc1cc(C(=O)O)cc(C(=O)O)c1 [compound 45, 5-(butyramido)isophthalic acid] | I (0.1) | S (0.1) | I (0.1) | I (1.1) | I (0.1) | S | I (1.3) | – | – | – | – | – | – | – | L [2, 4]: 50-1000 nm; W [2, 4]: 3-6 nm; L ([2]; Xylenes:THF (1:1), 1.3 mg/mL, sheets): 2000-10000 nm |
| CCCCCCCCCCCCC(CCCCCCCCCC)C(=O)Nc1cc(C(=O)O)cc(C(=O)O)c1 (stereo not shown) [compound 53, 5-(2-decyltetradecanamido)isophthalic acid] | G (0.4) | PG (2.0) | I (0.1) | G (1) | P (0.2), | S (0.1) | G (1.0) | G (1.0) | G (0.5) | G (0.6) | G (1) | – | – | – | gelator ability (state of sample) ([1]; solvent Benzene): G (0.4); gelator ability (state of sample) ([1]; solvent Dodecane): G (1); Description (nanostructure) ([2]; Toluene, 0.1 mg/mL): Bundles of fibrils; L [2, 5]: >1000 nm; W [2, 5]: 20-100 nm; L ([2]; Toluene, 0.1 mg/mL, fibrils): >1000 nm; W ([2]; Toluene, 0.1 mg/mL, fibrils): 5-10 nm |
| CCCCCCCCCCCCCCCCCCNC(=O)Nc1cc(C(=O)O)cc(C(=O)O)c1 [compound 56] | I (0.1) | P (0.5) | I (0.1) | I (0.1) | – | G (2.0) | I (0.1) | – | G (2.3) | S (1.0) | G (2.0) | Fibrils | >1000 nm | 5-10 nm | – |
| CCCCCCCCCCCCC(CCCCCCCCCC)C(=O)Nc1cc(C(N)=O)cc(C(N)=O)c1 (stereo not shown) [compound 74, 5-(2-decyltetradecanamido)isophthalamide] | P (0.1) | P (2.5) | I (0.1) | – | I (0.1) | S (3.0) | I (0.5) | I (0.1) | I (2.0) | S (0.1) | I (2.0) | Fibrils | 50-1000 nm | 5-10 nm | Description (nanostructure) ([2]; Chloroform, 1.0 mg/mL): Fibers; L ([2]; Chloroform, 1.0 mg/mL, fibers): 300-800 nm; W ([2]; Chloroform, 1.0 mg/mL, fibers): 25-200 nm; Description (nanostructure) ([2]; EtOH:H2O, 1.0 mg/mL): Fibers; also recorded: Fibrils; L ([2]; EtOH:H2O, 1.0 mg/mL, fibers): >5000 nm; W ([2]; EtOH:H2O, 1.0 mg/mL, fibers): 50-250 nm; L ([2]; EtOH:H2O, 1.0 mg/mL, fibrils): 10-100 nm; W ([2]; EtOH:H2O, 1.0 mg/mL, fibrils): 5-10 nm |
